The subject of the assay is IL-5 production in human blood. The experiment in a line: in vitro inhibition of IL-5 production in human blood (whole blood stimulated with phytohemagglutinin, IL-5 by ELISA). The format is cell-based. The conditions noted are these: test dose 1×10^−6 M, phytohemagglutinin HA17 stimulation, 48 hours, read-out: % inh. (percentage inhibition of IL-5 production). How it is done:
in vitro Inhibition of IL-5 Production in Human Blood
Human Whole Blood Stimulation
Peripheral blood from healthy male donors was drawn into heparinized syringes (12.5 U heparin/ml). Blood samples were three-fold diluted in RMPI 1640 medium (Life Technologies, Belgium) supplemented with 2 mM L-glutamine, 100 U/ml penicillin and […] streptomycin, and […] fractions were distributed in 24-well multidisc plates. Blood samples were preincubated (60 minutes at 37° C.) in a humidified 6% CO2-atmosphere with 100 ml of drug solvent (final concentration 0.02% dimethylsulfoxide in RPMI 1640) or with 100 ml of an appropriate dose of test compound before being stimulated by the addition of […] of phytohemagglutinin HA17 (Murex, UK) at a final concentration of […]. After 48 hours, cell-free supernatant fluids were collected by centrifugation and stored at −70° C. until tested for the presence of IL-5.
IL-5 measurements were conducted as described in Van Wauwe et al. (1996, Inflamm Res, 45, 357-363) on page 358 using ELISA.
Table 1 lists the percentage inhibition of IL-5 production (column “% inh”) at a test dose of 1×10^−6 M for the compounds of the present invention.
On the technique in general: An ELISA detects its analyte on a solid surface through an enzyme-linked reagent.

On to `CS(=O)(=O)c1ccc(C2(C(N)=S)CCc3cc(-n4ncc(=O)[nH]c4=O)ccc32)cc1` (centres unmarked) [Compound 6], for which the inhibition (commonly the share of the control response that was lost under treatment) at 1 µM came to 6%.

Regarding `Cc1sc(C2(c3ccc(S(C)(=O)=O)cc3)CCc3cc(-n4ncc(=O)[nH]c4=O)ccc32)nc1-c1ccccc1` (centres unmarked) [Compound 7], the inhibition at 1 µM was found to be 39%.

Values taken from US6469001B1, “IL-5 inhibiting 6-azauracil derivatives” (priority 1998, dated 2002).
